Measured values published in PubChem BioAssay AID330 (DTP/NCI, 2004).
Values joined by “and” are separate entries in the source; they are usually repeats but may differ in a detail not shown here. Identical values can stand only once. Inconclusive results and toxic doses are left out. Rule for the calls: active = survival T/C of 150% or more; inactive = T/C below 125% in these data. Peptide text beside a SMILES is read from it. * marks the point of attachment. Cbz = O=C(OCc1ccccc1)*

Tested on: P388 leukemia ip, CD2F1 mice, survival T/C
Assay: NCI In Vivo Anticancer Drug Screen. Data for tumor model P388 Leukemia (intraperitoneal) in CD2F1 (CDF1) mice
Details: endpoint: median survival time, higher = longer survival
In short: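 Mice carrying the transplanted tumor received test compound or vehicle. Survival was recorded in each group, and the value is the treated-group measurement divided by that of the vehicle-treated control group.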

[1] = dose: 100.0 mg/kg/injection, schedule: Q04DX003 (ip), vehicle: saline
[2] = dose: 200.0 mg/kg/injection, schedule: Q04DX003 (ip), vehicle: saline
[3] = dose: 400.0 mg/kg/injection, schedule: Q04DX003 (ip), vehicle: saline
[4] = dose: 50.0 mg/kg/injection, schedule: Q01DX005 (ip), vehicle: Klucel (hydroxypropylcellulose) (HPC)
[5] = dose: 100.0 mg/kg/injection, schedule: Q01DX005 (ip), vehicle: Klucel (hydroxypropylcellulose) (HPC)
[6] = dose: 200.0 mg/kg/injection, schedule: Q01DX005 (ip), vehicle: Klucel (hydroxypropylcellulose) (HPC)
[7] = dose: 120.0 mg/kg/injection, schedule: Q01DX005 (ip), vehicle: saline with Tween-80
[8] = dose: 240.0 mg/kg/injection, schedule: Q01DX005 (ip), vehicle: saline with Tween-80
[9] = dose: 50.0 mg/kg/injection, schedule: Q01DX009 (ip), vehicle: Klucel (hydroxypropylcellulose) (HPC)
[10] = dose: 100.0 mg/kg/injection, schedule: Q01DX009 (ip), vehicle: Klucel (hydroxypropylcellulose) (HPC)

Measured: T/C

CC(=O)Sc1nnc2c3ccccc3n(C(C)=O)c2n1
inactive: [1] 99 % of control | [2] 97 % of control | [3] 105 % of control

OCc1cccc2c1C(O)c1ccccc1-2 (centres undefined)
inactive: [4] 100 % of control | [5] 104 % of control | [6] 100 % of control

CCCC12C=C(OC)C(=O)C(C1=O)C(c1ccc3c(c1)OCO3)C2C (centres undefined)
inactive: dose: 8.75 mg/kg/injection, schedule: Q01DX005 (ip), vehicle: Klucel (hydroxypropylcellulose) (HPC) 118 % of control | dose: 17.5 mg/kg/injection, schedule: Q01DX005 (ip), vehicle: Klucel (hydroxypropylcellulose) (HPC) 110 % of control | dose: 35.0 mg/kg/injection, schedule: Q01DX005 (ip), vehicle: Klucel (hydroxypropylcellulose) (HPC) 100 % of control

c1ccc(Cc2ncnc3nc[nH]c23)cc1
inactive: dose: 2.5 mg/kg/injection, schedule: Q01DX009 (ip), vehicle: saline with Tween-80 111 % of control | dose: 5.0 mg/kg/injection, schedule: Q01DX009 (ip), vehicle: saline with Tween-80 111 % of control | dose: 10.0 mg/kg/injection, schedule: Q01DX009 (ip), vehicle: saline with Tween-80 111 % of control | dose: 20.0 mg/kg/injection, schedule: Q01DX009 (ip), vehicle: saline with Tween-80 105 % of control and 107 % of control and 110 % of control | dose: 40.0 mg/kg/injection, schedule: Q01DX009 (ip), vehicle: saline with Tween-80 98 % of control and 103 % of control | dose: 80.0 mg/kg/injection, schedule: Q01DX009 (ip), vehicle: saline with Tween-80 110 % of control and 111 % of control and 91 % of control | dose: 160.0 mg/kg/injection, schedule: Q01DX009 (ip), vehicle: saline with Tween-80 95 % of control

O=C(OCCCCCl)c1ccccc1
inactive: dose: 50.0 mg/kg/injection, schedule: Q01DX009 (ip), vehicle: saline + Tween-80 + alcohol 104 % of control | dose: 100.0 mg/kg/injection, schedule: Q01DX009 (ip), vehicle: saline + Tween-80 + alcohol 104 % of control | dose: 200.0 mg/kg/injection, schedule: Q01DX009 (ip), vehicle: saline + Tween-80 + alcohol 110 % of control | dose: 400.0 mg/kg/injection, schedule: Q01DX009 (ip), vehicle: saline + Tween-80 + alcohol 112 % of control

NC(=S)c1cccc(C=Nc2ccccc2)n1
inactive: dose: 12.5 mg/kg/injection, schedule: Q04DX003 (ip), vehicle: Klucel (hydroxypropylcellulose) (HPC) 106 % of control | dose: 25.0 mg/kg/injection, schedule: Q04DX003 (ip), vehicle: Klucel (hydroxypropylcellulose) (HPC) 105 % of control | dose: 50.0 mg/kg/injection, schedule: Q04DX003 (ip), vehicle: Klucel (hydroxypropylcellulose) (HPC) 97 % of control | dose: 100.0 mg/kg/injection, schedule: Q04DX003 (ip), vehicle: Klucel (hydroxypropylcellulose) (HPC) 91 % of control

Cc1ccc(NC(=O)N2c3ccccc3SC23CCCCC3)c(C)c1
inactive: dose: 50.0 mg/kg/injection, schedule: Q01DX009 (ip), vehicle: saline with Tween-80 102 % of control | dose: 100.0 mg/kg/injection, schedule: Q01DX009 (ip), vehicle: saline with Tween-80 105 % of control | dose: 200.0 mg/kg/injection, schedule: Q01DX009 (ip), vehicle: saline with Tween-80 103 % of control

Cc1ccc(C(=Nc2ccccc2)N=S(c2ccccc2)c2ccccc2)cc1
inactive: dose: 50.0 mg/kg/injection, schedule: Q04DX003 (ip), vehicle: saline with Tween-80 97 % of control | dose: 100.0 mg/kg/injection, schedule: Q04DX003 (ip), vehicle: saline with Tween-80 92 % of control | dose: 200.0 mg/kg/injection, schedule: Q04DX003 (ip), vehicle: saline with Tween-80 97 % of control

O=C(Nc1ccc(CC2=NCCCN2)cc1)c1ccc(C(=O)Nc2ccc(CC3=NCCCN3)cc2)cc1
inactive: dose: 0.78 mg/kg/injection, schedule: Q01DX005 (ip), vehicle: saline with Tween-80 93 % of control | dose: 1.56 mg/kg/injection, schedule: Q01DX005 (ip), vehicle: saline with Tween-80 112 % of control

O=C(Nc1ccc(Cl)cc1)Nc1nnc(-c2ccc(Cl)cc2Cl)o1
inactive: dose: 60.0 mg/kg/injection, schedule: Q01DX005 (ip), vehicle: saline with Tween-80 91 % of control | [7] 86 % of control | [8] 97 % of control

CCOc1c(-c2ccccc2)c(=O)n2c3ccccc3n(CC)c2c1C#N
inactive: dose: 7.5 mg/kg/injection, schedule: Q01DX005 (ip), vehicle: saline with Tween-80 86 % of control | dose: 15.0 mg/kg/injection, schedule: Q01DX005 (ip), vehicle: saline with Tween-80 87 % of control | dose: 30.0 mg/kg/injection, schedule: Q01DX005 (ip), vehicle: saline with Tween-80 93 % of control | [7] 88 % of control | [8] 98 % of control and 100 % of control

CCN(CC)CCNc1cccc2oc3ccc(O)cc3c(=O)c12
inactive: dose: 50.0 mg/kg/injection, schedule: Q01DX005 (ip), vehicle: saline with Tween-80 108 % of control | dose: 100.0 mg/kg/injection, schedule: Q01DX005 (ip), vehicle: saline with Tween-80 105 % of control | dose: 200.0 mg/kg/injection, schedule: Q01DX005 (ip), vehicle: saline with Tween-80 108 % of control

Cc1ccc(NCC2CCCN3CCCCC23)c2c(=O)c3cc(O)ccc3sc12 (centres undefined)
inactive: dose: 100.0 mg/kg/injection, schedule: Q04DX002 (ip), vehicle: saline with Tween-80 97 % of control | dose: 200.0 mg/kg/injection, schedule: Q04DX002 (ip), vehicle: saline with Tween-80 102 % of control

CN(C)c1nc(NC(=O)NC(=O)c2c(F)cccc2F)nc(N(C)C)n1
inactive: dose: 6.25 mg/kg/injection, schedule: Q01DX009 (ip), vehicle: saline with Tween-80 101 % of control | dose: 12.5 mg/kg/injection, schedule: Q01DX009 (ip), vehicle: saline with Tween-80 111 % of control | dose: 25.0 mg/kg/injection, schedule: Q01DX009 (ip), vehicle: saline with Tween-80 104 % of control

COC(C)C(Br)C(=O)NN=C(c1ccccc1)c1ccccc1 (centres undefined)
inactive: [1] 95 % of control | [2] 93 % of control | [3] 95 % of control

FC(F)(F)C1(C(F)(F)F)[O][Sb]([c]2ccc(Cl)cc2)([c]2ccc(Cl)cc2)([c]2ccc(Cl)cc2)[O]1
inactive: [9] 103 % of control | [10] 88 % of control

COc1ccc(OC)c2c(Cl)cc(NCCCN3CCN(CCCNc4cc(Cl)c5c(OC)ccc(OC)c5n4)CC3)nc12
inactive: [4] 97 % of control | [5] 93 % of control | [6] 90 % of control

O=C(NC(Cc1ccccc1)C(=O)NC(Cc1ccc(O)cc1)C(=O)O)OCc1ccccc1 (stereo not drawn) (Cbz-Phe-Tyr-OH; configuration not given here)
inactive: dose: 50.0 mg/kg/injection, schedule: Q01DX005 (ip), vehicle: saline + Tween-80 + alcohol 97 % of control | dose: 100.0 mg/kg/injection, schedule: Q01DX005 (ip), vehicle: saline + Tween-80 + alcohol 95 % of control | dose: 200.0 mg/kg/injection, schedule: Q01DX005 (ip), vehicle: saline + Tween-80 + alcohol 96 % of control

COC(=O)CC1(C(=O)OC)c2sc(C(C)C)cc2N2CCCC21 (centres undefined)
inactive: dose: 10.0 mg/kg/injection, schedule: Q01DX009 (ip), vehicle: Klucel (hydroxypropylcellulose) (HPC) 97 % of control | dose: 20.0 mg/kg/injection, schedule: Q01DX009 (ip), vehicle: Klucel (hydroxypropylcellulose) (HPC) 93 % of control | dose: 40.0 mg/kg/injection, schedule: Q01DX009 (ip), vehicle: Klucel (hydroxypropylcellulose) (HPC) 93 % of control | dose: 80.0 mg/kg/injection, schedule: Q01DX009 (ip), vehicle: Klucel (hydroxypropylcellulose) (HPC) 91 % of control

CCCCCOc1cc2c(cc1C(C)c1ccc(OC)cc1)OCO2 (centres undefined)
inactive: [4] 107 % of control | [5] 103 % of control | [6] 98 % of control

N#CC12CCCCC1CCC1(C2)OCCO1 (centres undefined)
inactive: [9] 111 % of control | [10] 100 % of control | dose: 200.0 mg/kg/injection, schedule: Q01DX009 (ip), vehicle: Klucel (hydroxypropylcellulose) (HPC) 108 % of control
